# Test results from paper PMC3010111 (Molecular Systems Biology, 2010).
# Biological target: T1, AroB (dehydroquinate synthase) (Escherichia coli, UniProt P07639)
# T1 sequence (P07639 1-362): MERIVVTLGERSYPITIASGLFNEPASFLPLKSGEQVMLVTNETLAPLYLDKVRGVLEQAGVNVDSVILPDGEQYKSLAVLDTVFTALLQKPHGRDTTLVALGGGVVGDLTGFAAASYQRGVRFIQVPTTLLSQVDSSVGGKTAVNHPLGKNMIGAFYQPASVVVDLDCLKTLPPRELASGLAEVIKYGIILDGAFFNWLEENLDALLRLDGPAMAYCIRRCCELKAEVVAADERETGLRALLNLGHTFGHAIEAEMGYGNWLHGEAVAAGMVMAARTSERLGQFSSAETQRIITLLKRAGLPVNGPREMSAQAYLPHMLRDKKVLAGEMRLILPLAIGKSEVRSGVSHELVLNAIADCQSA
# Experiment: NAD+ reduction
# Type: biochemical
# Details: 2 mM NAD+, 100 mM Tris–HCl pH 7.5, 10°C; 11 μM AroB
smiles,measurement,value
O=C(O)[C@H](O)[C@H](O)COP(=O)(O)O [4PE],NAD+ reduction; single turnover (data not shown),"AroB also oxidizes 4PE, but carries out only a single turnover (data not shown)."
